Results on three molecules are retold here after paper PMC6348381, “Discovery of an MLLT1/3 YEATS Domain Chemical Probe” (Angewandte Chemie (International Ed. in English), 2018).

Holding throughout (assay type): binding
One assay deals with T1, TAF1L(2) (Homo sapiens, UniProt Q8IZX4).
T1 construct: Bromosporine with recombinant human bromodomain proteins; made in house
T1 sequence (Q8IZX4 1517-1626 limits assumed): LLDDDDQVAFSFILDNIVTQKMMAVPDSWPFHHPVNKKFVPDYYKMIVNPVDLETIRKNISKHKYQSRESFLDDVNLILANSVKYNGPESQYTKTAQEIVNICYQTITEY
Briefly: Thermal shift assay, TAF1L(2). As for the experimental part: (§1) II.VII Thermal Shift Assay[6]
(§2) Thermal melting experiments were carried out using an Mx3005p Real Time PCR machine (Stratagene). Proteins were buffered in 10 mM HEPES pH 7.5, 500 mM NaCl and assayed in a 96-well plate at a final concentration of 2 μM in 20 μL volume. Compounds were added at a final concentration of 50 μM. SYPRO Orange (Molecular Probes) was added as a fluorescence probe at a dilution of 1:1000. Excitation and emission filters for the SYPRO-Orange dye were set to 465 nm and 590 nm, respectively. The temperature was raised with a step of 3 °C per minute from 25 °C to 96 °C and fluorescence readings were taken at each interval. The unfolding curves were fitted using the Boltzmann equation to determine the middle point of the transition.

For the next assay, the target named is T2, MLL (Homo sapiens, UniProt Q03164).
T2 construct: purchased in-house (SGC bromodomain thermal shift / AlphaScreen panel)
T2 sequence (Q03164 whole entry): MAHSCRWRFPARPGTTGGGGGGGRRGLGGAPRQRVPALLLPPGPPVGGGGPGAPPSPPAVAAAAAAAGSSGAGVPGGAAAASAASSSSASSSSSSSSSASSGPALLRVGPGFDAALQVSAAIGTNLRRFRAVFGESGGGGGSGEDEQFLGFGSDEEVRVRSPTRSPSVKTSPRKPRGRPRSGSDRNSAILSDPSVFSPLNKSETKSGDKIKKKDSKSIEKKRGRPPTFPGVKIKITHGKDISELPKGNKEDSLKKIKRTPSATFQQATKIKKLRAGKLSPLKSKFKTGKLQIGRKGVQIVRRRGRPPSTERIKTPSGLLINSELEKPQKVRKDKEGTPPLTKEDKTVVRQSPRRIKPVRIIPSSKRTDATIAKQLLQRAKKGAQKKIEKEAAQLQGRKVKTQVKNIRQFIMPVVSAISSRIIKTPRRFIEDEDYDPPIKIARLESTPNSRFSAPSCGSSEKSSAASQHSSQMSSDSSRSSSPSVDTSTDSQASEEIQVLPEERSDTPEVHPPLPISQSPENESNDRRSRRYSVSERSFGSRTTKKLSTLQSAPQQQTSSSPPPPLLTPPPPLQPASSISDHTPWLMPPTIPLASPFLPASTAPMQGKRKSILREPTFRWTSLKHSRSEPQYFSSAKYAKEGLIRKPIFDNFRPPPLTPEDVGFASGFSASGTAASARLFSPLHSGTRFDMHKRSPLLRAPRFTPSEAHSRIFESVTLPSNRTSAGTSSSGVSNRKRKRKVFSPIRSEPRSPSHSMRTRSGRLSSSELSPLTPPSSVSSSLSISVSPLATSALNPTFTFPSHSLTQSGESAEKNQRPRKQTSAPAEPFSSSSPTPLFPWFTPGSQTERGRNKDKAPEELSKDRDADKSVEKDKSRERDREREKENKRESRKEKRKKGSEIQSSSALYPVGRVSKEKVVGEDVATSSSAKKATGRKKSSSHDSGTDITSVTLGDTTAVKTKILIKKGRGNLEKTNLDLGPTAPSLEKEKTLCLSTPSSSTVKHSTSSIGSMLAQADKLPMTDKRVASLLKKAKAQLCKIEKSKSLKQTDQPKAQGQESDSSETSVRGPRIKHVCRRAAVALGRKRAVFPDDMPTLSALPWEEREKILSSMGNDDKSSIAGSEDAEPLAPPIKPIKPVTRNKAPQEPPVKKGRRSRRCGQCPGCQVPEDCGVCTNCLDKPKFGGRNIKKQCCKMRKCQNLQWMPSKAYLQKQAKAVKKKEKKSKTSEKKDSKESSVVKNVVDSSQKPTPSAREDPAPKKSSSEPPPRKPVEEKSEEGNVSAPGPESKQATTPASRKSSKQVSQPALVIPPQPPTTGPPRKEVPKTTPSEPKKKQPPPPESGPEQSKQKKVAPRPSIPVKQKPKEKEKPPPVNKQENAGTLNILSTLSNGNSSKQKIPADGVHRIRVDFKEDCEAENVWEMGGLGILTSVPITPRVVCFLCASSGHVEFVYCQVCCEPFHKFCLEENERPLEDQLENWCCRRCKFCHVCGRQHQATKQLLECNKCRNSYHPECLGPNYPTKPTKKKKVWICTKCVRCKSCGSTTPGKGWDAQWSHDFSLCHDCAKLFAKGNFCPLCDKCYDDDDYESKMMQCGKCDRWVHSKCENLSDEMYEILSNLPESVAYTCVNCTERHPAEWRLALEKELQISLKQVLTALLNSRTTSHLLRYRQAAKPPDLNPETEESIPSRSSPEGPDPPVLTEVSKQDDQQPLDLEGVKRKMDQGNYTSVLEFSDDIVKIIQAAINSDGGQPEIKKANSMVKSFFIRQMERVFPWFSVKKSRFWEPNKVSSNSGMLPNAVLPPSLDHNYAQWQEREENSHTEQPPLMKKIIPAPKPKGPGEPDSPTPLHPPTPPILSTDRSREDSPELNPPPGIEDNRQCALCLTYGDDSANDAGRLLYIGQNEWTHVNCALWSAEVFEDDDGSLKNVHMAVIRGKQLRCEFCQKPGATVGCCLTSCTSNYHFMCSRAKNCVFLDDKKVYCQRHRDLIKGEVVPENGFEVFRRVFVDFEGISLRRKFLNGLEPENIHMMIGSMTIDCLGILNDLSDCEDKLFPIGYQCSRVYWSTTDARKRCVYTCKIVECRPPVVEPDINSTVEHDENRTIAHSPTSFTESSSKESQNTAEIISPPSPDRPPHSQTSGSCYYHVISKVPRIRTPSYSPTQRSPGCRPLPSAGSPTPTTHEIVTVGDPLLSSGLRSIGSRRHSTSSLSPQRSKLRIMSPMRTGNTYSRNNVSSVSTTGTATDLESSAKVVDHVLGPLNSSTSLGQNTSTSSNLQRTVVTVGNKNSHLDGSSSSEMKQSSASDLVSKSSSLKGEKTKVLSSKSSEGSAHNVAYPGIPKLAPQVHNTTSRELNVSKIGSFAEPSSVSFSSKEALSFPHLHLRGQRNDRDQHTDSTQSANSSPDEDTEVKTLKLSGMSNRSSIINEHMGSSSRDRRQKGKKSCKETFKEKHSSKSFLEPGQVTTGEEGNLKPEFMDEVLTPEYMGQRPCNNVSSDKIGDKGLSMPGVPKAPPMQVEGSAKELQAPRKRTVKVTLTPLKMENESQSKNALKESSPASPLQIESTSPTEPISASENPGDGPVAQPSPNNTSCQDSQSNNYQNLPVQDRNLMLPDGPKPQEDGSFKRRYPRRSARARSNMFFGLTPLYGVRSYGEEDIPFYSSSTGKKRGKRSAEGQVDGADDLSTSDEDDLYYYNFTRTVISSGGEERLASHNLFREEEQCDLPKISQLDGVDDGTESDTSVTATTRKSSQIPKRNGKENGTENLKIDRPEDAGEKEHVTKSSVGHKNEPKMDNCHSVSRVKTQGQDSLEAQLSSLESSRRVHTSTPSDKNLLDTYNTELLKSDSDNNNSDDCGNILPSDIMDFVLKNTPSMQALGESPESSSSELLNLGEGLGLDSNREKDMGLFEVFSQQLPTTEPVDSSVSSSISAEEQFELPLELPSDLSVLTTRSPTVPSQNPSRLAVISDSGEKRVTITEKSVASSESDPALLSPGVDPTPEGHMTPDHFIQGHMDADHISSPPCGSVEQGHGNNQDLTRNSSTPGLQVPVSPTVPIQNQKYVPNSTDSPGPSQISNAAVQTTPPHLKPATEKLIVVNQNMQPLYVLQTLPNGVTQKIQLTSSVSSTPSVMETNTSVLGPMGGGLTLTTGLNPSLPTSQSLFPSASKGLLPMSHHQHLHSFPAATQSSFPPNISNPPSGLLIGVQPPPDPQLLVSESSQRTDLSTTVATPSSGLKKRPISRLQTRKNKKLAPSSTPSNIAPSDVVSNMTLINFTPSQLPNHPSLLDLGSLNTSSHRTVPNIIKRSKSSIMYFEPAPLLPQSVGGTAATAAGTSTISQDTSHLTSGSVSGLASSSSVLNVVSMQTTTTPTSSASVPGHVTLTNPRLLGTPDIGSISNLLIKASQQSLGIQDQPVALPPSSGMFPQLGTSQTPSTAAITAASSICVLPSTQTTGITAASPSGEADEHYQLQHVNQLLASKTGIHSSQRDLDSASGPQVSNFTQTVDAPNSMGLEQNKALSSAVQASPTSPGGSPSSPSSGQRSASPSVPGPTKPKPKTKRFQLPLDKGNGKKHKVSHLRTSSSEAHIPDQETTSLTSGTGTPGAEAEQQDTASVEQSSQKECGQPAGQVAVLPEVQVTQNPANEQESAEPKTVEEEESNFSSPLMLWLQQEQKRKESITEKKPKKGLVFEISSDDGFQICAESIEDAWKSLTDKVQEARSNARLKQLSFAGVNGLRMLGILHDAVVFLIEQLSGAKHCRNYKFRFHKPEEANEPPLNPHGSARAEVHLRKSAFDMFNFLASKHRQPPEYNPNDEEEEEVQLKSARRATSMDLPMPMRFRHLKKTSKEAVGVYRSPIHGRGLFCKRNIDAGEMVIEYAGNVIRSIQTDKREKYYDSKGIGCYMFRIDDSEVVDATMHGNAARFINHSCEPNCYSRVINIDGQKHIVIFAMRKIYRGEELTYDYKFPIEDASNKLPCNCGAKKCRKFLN
Briefly: Thermal shift assay, MLL.

The target of the next assay is T3, BAZ1B (Homo sapiens, UniProt Q9UIG0).
T3 construct: purchased in-house (SGC bromodomain thermal shift / AlphaScreen panel)
T3 sequence (Q9UIG0 1-1483): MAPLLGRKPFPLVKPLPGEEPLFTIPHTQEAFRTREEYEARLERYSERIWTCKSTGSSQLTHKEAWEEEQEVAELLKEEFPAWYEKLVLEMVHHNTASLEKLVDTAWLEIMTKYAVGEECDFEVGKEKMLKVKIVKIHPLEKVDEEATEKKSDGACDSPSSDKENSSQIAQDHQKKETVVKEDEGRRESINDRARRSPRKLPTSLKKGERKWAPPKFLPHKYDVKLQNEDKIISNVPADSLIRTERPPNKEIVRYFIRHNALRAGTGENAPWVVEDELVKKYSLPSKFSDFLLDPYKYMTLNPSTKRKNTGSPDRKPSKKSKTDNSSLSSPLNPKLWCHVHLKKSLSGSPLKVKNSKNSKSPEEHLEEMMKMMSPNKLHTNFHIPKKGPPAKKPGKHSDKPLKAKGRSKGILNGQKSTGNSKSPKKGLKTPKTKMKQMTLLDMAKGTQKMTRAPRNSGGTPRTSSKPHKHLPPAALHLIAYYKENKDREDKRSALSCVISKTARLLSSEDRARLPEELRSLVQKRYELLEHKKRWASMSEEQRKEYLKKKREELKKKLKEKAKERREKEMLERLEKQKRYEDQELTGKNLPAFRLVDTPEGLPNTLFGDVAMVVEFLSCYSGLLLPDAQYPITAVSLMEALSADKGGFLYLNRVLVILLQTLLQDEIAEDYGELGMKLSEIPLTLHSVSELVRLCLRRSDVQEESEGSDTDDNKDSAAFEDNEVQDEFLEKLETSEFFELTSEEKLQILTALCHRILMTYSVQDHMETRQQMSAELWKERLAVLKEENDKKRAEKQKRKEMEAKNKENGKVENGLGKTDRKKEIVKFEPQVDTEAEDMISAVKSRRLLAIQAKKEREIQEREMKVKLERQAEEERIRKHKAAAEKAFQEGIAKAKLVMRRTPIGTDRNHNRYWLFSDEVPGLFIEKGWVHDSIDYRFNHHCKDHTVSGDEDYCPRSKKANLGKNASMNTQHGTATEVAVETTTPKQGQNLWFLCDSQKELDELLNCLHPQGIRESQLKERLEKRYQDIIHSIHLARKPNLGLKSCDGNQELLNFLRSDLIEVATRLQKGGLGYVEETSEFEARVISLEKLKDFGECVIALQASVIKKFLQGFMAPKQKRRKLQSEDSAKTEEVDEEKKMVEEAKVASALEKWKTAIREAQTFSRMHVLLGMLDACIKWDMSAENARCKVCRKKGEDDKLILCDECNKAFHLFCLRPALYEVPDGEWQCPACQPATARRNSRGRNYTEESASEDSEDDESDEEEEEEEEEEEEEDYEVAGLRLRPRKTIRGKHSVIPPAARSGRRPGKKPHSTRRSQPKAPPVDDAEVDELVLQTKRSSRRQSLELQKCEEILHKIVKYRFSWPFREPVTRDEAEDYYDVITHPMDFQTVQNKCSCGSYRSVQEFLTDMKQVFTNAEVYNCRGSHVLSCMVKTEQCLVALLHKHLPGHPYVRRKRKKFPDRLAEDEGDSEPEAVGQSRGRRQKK
Briefly: Thermal shift assay, BAZ1B. The method, then:
as §1, §2

In the case of `COC(=O)c1ccc(C(=O)Nc2ccc3[nH]c(CN4CCCCC4)nc3c2)cc1` [Compound 1], the “Thermal stabilisation, TAF1L(2)” value at TAF1L(2) (50 μM compound) is recorded as -0.065. In addition, the “Thermal stabilisation, MLL” value on MLL (50 μM compound) is recorded as -0.18. Also, on BAZ1B (50 μM compound), the “Thermal stabilisation, BAZ1B” value is on record as 1.03.

With `C[C@H]1CCCN1Cc1nc2cc(NC(=O)c3ccc4c(cnn4C)c3)ccc2[nH]1` [Compound 92], the “Thermal stabilisation, TAF1L(2)” value at TAF1L(2) (50 μM compound) is -0.48. For the same molecule, the “Thermal stabilisation, MLL” value on MLL (50 μM compound) was -1.31. On BAZ1B (50 μM compound), the “Thermal stabilisation, BAZ1B” value is recorded as -0.19.

As for `CCOC(=O)Nc1cc(-c2ccc(C)c(NS(C)(=O)=O)c2)nn2c(C)nnc12` [Bromosporine, reference compound], the “Thermal stabilisation, TAF1L(2)” value at TAF1L(2) (10 µM compound concentration) amounted to 4.83. In addition, the “Thermal stabilisation, MLL” value on MLL (10 µM compound concentration) is reported as 0.75. Moreover, the “Thermal stabilisation, BAZ1B” value on BAZ1B (10 µM compound concentration) is reported as -0.23.
